Tested on: Unknown protein yeast genes
Assay: DNA chip mRNA expression in yeast, unknown protein yeast genes (Table 1)
Type: cell-based, Saccharomyces cerevisiae S288C
In short: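 Cells were grown at 25° C. in YPD, treated at logarithmic phase for 2 h with a chemical at a concentration inhibiting growth but not causing death, and compared with untreated cultures. Labeled cDNA was hybridized to a DNA chip carrying all yeast genes, and the expression ratio was taken from scanner fluorescence.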

O=[N+]([O-])c1cc[n+]([O-])c2ccccc12 [(5), 4-nitroquinolin-N-oxide]
The level of expressed mRNA in the presence of chemical substance/The level of expressed mRNA in the absence of chemical substance (yeast gene YKL071W): 1.1
The level of expressed mRNA in the presence of chemical substance/The level of expressed mRNA in the absence of chemical substance (yeast gene YKL086W, incubated two hours with chemical substance): 0.8
The level of expressed mRNA in the presence of chemical substance/The level of expressed mRNA in the absence of chemical substance (yeast gene YKL151C, incubated two hours with chemical substance): 1.0
The level of expressed mRNA in the presence of chemical substance/The level of expressed mRNA in the absence of chemical substance (yeast gene YKL153W, incubated two hours with chemical substance): 1.0
The level of expressed mRNA in the presence of chemical substance/The level of expressed mRNA in the absence of chemical substance (yeast gene YKL195W, incubated two hours with chemical substance): 1.9
The level of expressed mRNA in the presence of chemical substance/The level of expressed mRNA in the absence of chemical substance (yeast gene YKR091W, incubated two hours with chemical substance): 1.6
The level of expressed mRNA in the presence of chemical substance/The level of expressed mRNA in the absence of chemical substance (yeast gene YLR054C, incubated two hours with chemical substance): 1.3
The level of expressed mRNA in the presence of chemical substance/The level of expressed mRNA in the absence of chemical substance (yeast gene YLR149C, incubated two hours with chemical substance): 0.8
The level of expressed mRNA in the presence of chemical substance/The level of expressed mRNA in the absence of chemical substance (yeast gene YLR152C, incubated two hours with chemical substance): 1.1
The level of expressed mRNA in the presence of chemical substance/The level of expressed mRNA in the absence of chemical substance (yeast gene YLR194C, incubated two hours with chemical substance): 1.0
The level of expressed mRNA in the presence of chemical substance/The level of expressed mRNA in the absence of chemical substance (yeast gene YLR324W, incubated two hours with chemical substance): 1.3
The level of expressed mRNA in the presence of chemical substance/The level of expressed mRNA in the absence of chemical substance (yeast gene YLR339C): 1.3
The level of expressed mRNA in the presence of chemical substance/The level of expressed mRNA in the absence of chemical substance (yeast gene YLR350W, incubated two hours with chemical substance): 0.8
The level of expressed mRNA in the presence of chemical substance/The level of expressed mRNA in the absence of chemical substance (yeast gene YLR387C, incubated two hours with chemical substance): 1.3
The level of expressed mRNA in the presence of chemical substance/The level of expressed mRNA in the absence of chemical substance (yeast gene YLR460C): 1.3
The level of expressed mRNA in the presence of chemical substance/The level of expressed mRNA in the absence of chemical substance (yeast gene YML117W, incubated two hours with chemical substance): 0.8
The level of expressed mRNA in the presence of chemical substance/The level of expressed mRNA in the absence of chemical substance (yeast gene YMR007W): 1.3
The level of expressed mRNA in the presence of chemical substance/The level of expressed mRNA in the absence of chemical substance (yeast gene YMR009W, incubated two hours with chemical substance): 1.9
The level of expressed mRNA in the presence of chemical substance/The level of expressed mRNA in the absence of chemical substance (yeast gene YMR067C, incubated two hours with chemical substance): 1.1
The level of expressed mRNA in the presence of chemical substance/The level of expressed mRNA in the absence of chemical substance (yeast gene YMR090W): 0.7
The level of expressed mRNA in the presence of chemical substance/The level of expressed mRNA in the absence of chemical substance (yeast gene YMR095C, incubated two hours with chemical substance): 0.9
The level of expressed mRNA in the presence of chemical substance/The level of expressed mRNA in the absence of chemical substance (yeast gene YMR097C, incubated two hours with chemical substance): 0.7
The level of expressed mRNA in the presence of chemical substance/The level of expressed mRNA in the absence of chemical substance (yeast gene YMR102C, incubated two hours with chemical substance): 1.2
The level of expressed mRNA in the presence of chemical substance/The level of expressed mRNA in the absence of chemical substance (yeast gene YMR107W, incubated two hours with chemical substance): 1.1
The level of expressed mRNA in the presence of chemical substance/The level of expressed mRNA in the absence of chemical substance (yeast gene YMR180C, incubated two hours with chemical substance): 1.0
The level of expressed mRNA in the presence of chemical substance/The level of expressed mRNA in the absence of chemical substance (yeast gene YMR184W, incubated two hours with chemical substance): 0.8
The level of expressed mRNA in the presence of chemical substance/The level of expressed mRNA in the absence of chemical substance (yeast gene YMR191W, incubated two hours with chemical substance): 1.5
The level of expressed mRNA in the presence of chemical substance/The level of expressed mRNA in the absence of chemical substance (yeast gene YMR295C, incubated two hours with chemical substance): 1.4
The level of expressed mRNA in the presence of chemical substance/The level of expressed mRNA in the absence of chemical substance (yeast gene YMR316W, incubated two hours with chemical substance): 1.1
The level of expressed mRNA in the presence of chemical substance/The level of expressed mRNA in the absence of chemical substance (yeast gene YNL044W, incubated two hours with chemical substance): 1.2
The level of expressed mRNA in the presence of chemical substance/The level of expressed mRNA in the absence of chemical substance (yeast gene YNL074C, incubated two hours with chemical substance): 1.3
The level of expressed mRNA in the presence of chemical substance/The level of expressed mRNA in the absence of chemical substance (yeast gene YNL092W, incubated two hours with chemical substance): 0.9
The level of expressed mRNA in the presence of chemical substance/The level of expressed mRNA in the absence of chemical substance (yeast gene YNL115C, incubated two hours with chemical substance): 0.8
The level of expressed mRNA in the presence of chemical substance/The level of expressed mRNA in the absence of chemical substance (yeast gene YNL156C, incubated two hours with chemical substance): 1.6
The level of expressed mRNA in the presence of chemical substance/The level of expressed mRNA in the absence of chemical substance (yeast gene YNL234W, incubated two hours with chemical substance): 1.7
The level of expressed mRNA in the presence of chemical substance/The level of expressed mRNA in the absence of chemical substance (yeast gene YNL281W, incubated two hours with chemical substance): 1.7
The level of expressed mRNA in the presence of chemical substance/The level of expressed mRNA in the absence of chemical substance (yeast gene YNL305C, incubated two hours with chemical substance): 1.3
The level of expressed mRNA in the presence of chemical substance/The level of expressed mRNA in the absence of chemical substance (yeast gene YNR068C, incubated two hours with chemical substance): 1.7
The level of expressed mRNA in the presence of chemical substance/The level of expressed mRNA in the absence of chemical substance (yeast gene YOL032W, incubated two hours with chemical substance): 1.4
The level of expressed mRNA in the presence of chemical substance/The level of expressed mRNA in the absence of chemical substance (yeast gene YOL036W, incubated two hours with chemical substance): 1.2
The level of expressed mRNA in the presence of chemical substance/The level of expressed mRNA in the absence of chemical substance (yeast gene YOL047C, incubated two hours with chemical substance): 1.4
The level of expressed mRNA in the presence of chemical substance/The level of expressed mRNA in the absence of chemical substance (yeast gene YOL071W, incubated two hours with chemical substance): 0.9
The level of expressed mRNA in the presence of chemical substance/The level of expressed mRNA in the absence of chemical substance (yeast gene YOL082W, incubated two hours with chemical substance): 1.5
The level of expressed mRNA in the presence of chemical substance/The level of expressed mRNA in the absence of chemical substance (yeast gene YOL083W, incubated two hours with chemical substance): 1.4
The level of expressed mRNA in the presence of chemical substance/The level of expressed mRNA in the absence of chemical substance (yeast gene YOL117W, incubated two hours with chemical substance): 1.7
The level of expressed mRNA in the presence of chemical substance/The level of expressed mRNA in the absence of chemical substance (yeast gene YOL131W, incubated two hours with chemical substance): 1.5
The level of expressed mRNA in the presence of chemical substance/The level of expressed mRNA in the absence of chemical substance (yeast gene YOL150C): 1.0
The level of expressed mRNA in the presence of chemical substance/The level of expressed mRNA in the absence of chemical substance (yeast gene YOL162W, incubated two hours with chemical substance): 0.9
The level of expressed mRNA in the presence of chemical substance/The level of expressed mRNA in the absence of chemical substance (yeast gene YOR019W, incubated two hours with chemical substance): 1.4
The level of expressed mRNA in the presence of chemical substance/The level of expressed mRNA in the absence of chemical substance (yeast gene YOR129C): 1.3
The level of expressed mRNA in the presence of chemical substance/The level of expressed mRNA in the absence of chemical substance (yeast gene YOR197W, incubated two hours with chemical substance): 0.6
The level of expressed mRNA in the presence of chemical substance/The level of expressed mRNA in the absence of chemical substance (yeast gene YPL087W, incubated two hours with chemical substance): 0.6
The level of expressed mRNA in the presence of chemical substance/The level of expressed mRNA in the absence of chemical substance (yeast gene YPL196W, incubated two hours with chemical substance): 1.5
The level of expressed mRNA in the presence of chemical substance/The level of expressed mRNA in the absence of chemical substance (yeast gene YPL206C, incubated two hours with chemical substance): 0.7
The level of expressed mRNA in the presence of chemical substance/The level of expressed mRNA in the absence of chemical substance (yeast gene YPL222W, incubated two hours with chemical substance): 1.2
The level of expressed mRNA in the presence of chemical substance/The level of expressed mRNA in the absence of chemical substance (yeast gene YPL272C): 1.3
The level of expressed mRNA in the presence of chemical substance/The level of expressed mRNA in the absence of chemical substance (yeast gene YPR023C, incubated two hours with chemical substance): 1.1
The level of expressed mRNA in the presence of chemical substance/The level of expressed mRNA in the absence of chemical substance (yeast gene YPR150W): 1.3
The level of expressed mRNA in the presence of chemical substance/The level of expressed mRNA in the absence of chemical substance (yeast gene YPR151C, incubated two hours with chemical substance): 1.3
